Consider one compound from patent publication US20080114027A1, “Method for treating delirium” (priority 2006, published 2008).

One assay relates to PDE-3. The following applies: cited from earlier work.
In the next assay the test system is rat tail-flick model. The assay can be described thus: Anti-nociceptive pain testing, rat tail-flick model. The class given is in vivo, Male Sprague-Dawley (CD) rats. The conditions noted are these: 7.5 mg/kg i.p., magnitude and duration similar to morphine 1.3 mg/kg s.c., FIG. 1.
The next assay deals with PDE-11 (Homo sapiens, UniProt Q9HCR9). The following applies: cited from earlier work.
Chain of PDE-11 (Q9HCR9 whole entry): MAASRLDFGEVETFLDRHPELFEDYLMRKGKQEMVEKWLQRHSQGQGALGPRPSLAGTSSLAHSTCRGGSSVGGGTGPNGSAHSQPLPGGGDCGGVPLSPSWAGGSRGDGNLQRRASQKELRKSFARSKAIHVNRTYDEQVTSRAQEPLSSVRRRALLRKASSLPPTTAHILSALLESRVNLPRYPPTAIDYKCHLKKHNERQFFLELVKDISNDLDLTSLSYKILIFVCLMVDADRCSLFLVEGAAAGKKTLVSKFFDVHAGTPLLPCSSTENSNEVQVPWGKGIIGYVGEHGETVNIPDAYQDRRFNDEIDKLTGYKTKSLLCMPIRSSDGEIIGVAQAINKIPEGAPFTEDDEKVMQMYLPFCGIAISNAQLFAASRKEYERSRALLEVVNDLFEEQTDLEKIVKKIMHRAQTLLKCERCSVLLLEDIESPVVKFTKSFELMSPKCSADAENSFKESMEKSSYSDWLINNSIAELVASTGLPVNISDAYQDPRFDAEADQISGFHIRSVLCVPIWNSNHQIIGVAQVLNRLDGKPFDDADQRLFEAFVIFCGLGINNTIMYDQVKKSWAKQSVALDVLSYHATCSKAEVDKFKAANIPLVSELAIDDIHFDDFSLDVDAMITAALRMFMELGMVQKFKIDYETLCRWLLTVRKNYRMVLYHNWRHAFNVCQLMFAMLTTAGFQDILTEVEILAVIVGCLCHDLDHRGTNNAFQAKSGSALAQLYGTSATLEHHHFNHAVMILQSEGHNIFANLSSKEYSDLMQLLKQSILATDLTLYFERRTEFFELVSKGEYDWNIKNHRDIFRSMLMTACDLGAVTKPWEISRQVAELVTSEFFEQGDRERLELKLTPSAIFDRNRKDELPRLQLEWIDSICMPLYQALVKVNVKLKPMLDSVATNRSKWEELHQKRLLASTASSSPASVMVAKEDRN
Another assay concerns PDE-4. The following applies: cited from earlier work.
In another assay the target is PDE-10 (Homo sapiens, UniProt Q9Y233). The following applies: cited from earlier work.
Chain of PDE-10 (Q9Y233 whole entry): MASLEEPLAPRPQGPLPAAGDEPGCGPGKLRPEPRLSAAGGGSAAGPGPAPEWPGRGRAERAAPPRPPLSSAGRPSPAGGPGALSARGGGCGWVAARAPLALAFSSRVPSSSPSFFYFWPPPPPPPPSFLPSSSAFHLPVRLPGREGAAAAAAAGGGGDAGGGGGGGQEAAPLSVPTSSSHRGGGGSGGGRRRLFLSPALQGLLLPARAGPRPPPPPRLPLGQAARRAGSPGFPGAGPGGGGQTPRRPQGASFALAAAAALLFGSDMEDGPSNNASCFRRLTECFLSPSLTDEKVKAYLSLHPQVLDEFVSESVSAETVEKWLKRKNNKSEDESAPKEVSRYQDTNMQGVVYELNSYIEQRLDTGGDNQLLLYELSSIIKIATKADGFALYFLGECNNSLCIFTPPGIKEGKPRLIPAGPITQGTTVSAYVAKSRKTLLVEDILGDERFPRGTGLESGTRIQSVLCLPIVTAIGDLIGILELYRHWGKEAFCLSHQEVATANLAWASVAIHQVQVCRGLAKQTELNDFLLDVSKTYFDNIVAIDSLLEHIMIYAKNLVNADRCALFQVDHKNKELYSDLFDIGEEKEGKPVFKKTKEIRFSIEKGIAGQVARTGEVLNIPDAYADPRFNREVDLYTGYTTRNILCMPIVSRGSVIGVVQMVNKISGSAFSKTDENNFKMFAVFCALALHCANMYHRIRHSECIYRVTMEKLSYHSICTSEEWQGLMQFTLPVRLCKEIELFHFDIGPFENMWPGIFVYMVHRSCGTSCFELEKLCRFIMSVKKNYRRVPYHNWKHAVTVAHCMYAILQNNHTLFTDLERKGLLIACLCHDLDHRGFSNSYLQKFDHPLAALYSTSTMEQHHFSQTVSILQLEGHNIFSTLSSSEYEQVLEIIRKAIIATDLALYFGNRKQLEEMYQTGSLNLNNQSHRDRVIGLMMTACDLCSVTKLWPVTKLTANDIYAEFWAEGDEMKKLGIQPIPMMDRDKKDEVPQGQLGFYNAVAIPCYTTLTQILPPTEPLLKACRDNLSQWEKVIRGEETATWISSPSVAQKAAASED

Molecules are shown by their SMILES.

Regarding `CC(C)C(=O)c1c(C(C)C)nn2ccccc12` [ibudilast, 2-methyl-1-(2-(1-methylethyl)pyrazolo(1,5-a)pyridin-3-yl)1-propanone], the PDE inhibitory activity result in the assay with PDE-3, on PDE-11, in the assay with PDE-4 and at PDE-10 was “most active” throughout. In the assay with rat tail-flick model, the “acute analgesic efficacy (tail-flick latency time)” value was “increased the latency time”.
